We go through ten compounds from ChEMBL document CHEMBL3044854, “Synthesis and biological evaluation of diamide derivatives of (S)-BINOL and biphenyl as potential anti-inflammatory/anti-arthritic agents” (2013).

Assay [1] is described as follows: In vitro antiarthritic activity assessed as inhibition of bovine serum albumin denaturation at 50 ug/mL after 20 min by UV-Visible spectrophotometric analysis relative to control. It counts as functional.
A short description of assay [2]: Anti-inflammatory activity in Homo sapiens (human) RBCs assessed as prevention of hemolysis at 100 ug/mL after 30 min by UV-Vis spectrophotometric analysis relative to control. It counts as functional, Erythrocyte.
Assay [3] can be described thus: In vitro antiarthritic activity assessed as inhibition of bovine serum albumin denaturation at 100 ug/mL after 20 min by UV-Visible spectrophotometric analysis relative to control. The format is functional.
A short description of assay [4]: In vitro antiarthritic activity assessed as inhibition of bovine serum albumin denaturation at 800 ug/mL after 20 min by UV-Visible spectrophotometric analysis relative to control. It counts as functional.
The next assay concerns Erythrocyte. The experiment in a line: Anti-inflammatory activity in Homo sapiens (human) RBCs assessed as prevention of hemolysis after 30 min by UV-Vis spectrophotometric analysis. It counts as functional, cell-based.
Assay [5] in a line: In vitro antiarthritic activity assessed as inhibition of bovine serum albumin denaturation at 200 ug/mL after 20 min by UV-Visible spectrophotometric analysis relative to control. It counts as functional.
Assay [6] in a line: Anti-inflammatory activity in Homo sapiens (human) RBCs assessed as prevention of hemolysis at 10 ug/mL after 30 min by UV-Vis spectrophotometric analysis relative to control. The format is functional, Erythrocyte.
A short description of assay [7]: In vitro antiarthritic activity assessed as inhibition of bovine serum albumin denaturation at 400 ug/mL after 20 min by UV-Visible spectrophotometric analysis relative to control. The format is functional.
Assay [8] can be described thus: Anti-inflammatory activity in Homo sapiens (human) RBCs assessed as prevention of hemolysis at 50 ug/mL after 30 min by UV-Vis spectrophotometric analysis relative to control. It counts as functional, Erythrocyte.
The nature of assay [9]: Anti-inflammatory activity in Homo sapiens (human) RBCs assessed as prevention of hemolysis at 200 ug/mL after 30 min by UV-Vis spectrophotometric analysis relative to control. The format is functional, Erythrocyte.
A short description of assay [10]: In vitro antiarthritic activity assessed as inhibition of bovine serum albumin denaturation after 20 min by UV-Visible spectrophotometric analysis. It counts as functional.

One may read the inhibition as the change of the read-out against control, counted positive when it falls. Regarding `O=C(Cn1cnnn1)NCCSCCOc1ccccc1-c1ccccc1OCCSCCNC(=O)Cn1cnnn1`, the inhibition in assay [1] is 21.6%; in [3] it was 42.2%; in assay [4], 91.9%; in the assay on Erythrocyte it was “Dose-dependent effect”; in assay [5], 65.1%; in assay [7] it was 76.3%. Further, the inhibition entry in [10] is “Dose-dependent effect”. The Activity turned out to be 75.3% in [2], 54% in [6], 63.3% in assay [8] and 89.4% in assay [9].
For the compound `C[C@]12C=CC(=O)C=C1CC[C@@H]1[C@@H]2[C@@H](O)C[C@@]2(C)[C@H]1CC[C@]2(O)C(=O)CO` [PREDNISOLONE], the Activity in assay [2] worked out at 84.8%; in [6], 46%; in [8] it was 57.9%; in [9] it was 91%.
Regarding `O=C(Cc1cccs1)NCCSCCOc1ccccc1-c1ccccc1OCCSCCNC(=O)Cc1cccs1`, the inhibition is 28.3% in assay [1]; 34.9% in assay [3]; 84.8% in assay [4]; “Dose-dependent effect” in the assay on Erythrocyte; 41.1% in assay [5]; 69.6% in assay [7]. Besides, the inhibition entry in assay [10] is “Dose-dependent effect”. The Activity is 67.2% in assay [2], 47.3% in assay [6], 58.6% in [8] and 83.3% in [9].
Consider `O=C(O)Cc1ccccc1Nc1c(Cl)cccc1Cl`, for which the inhibition was found to be 5.6% in assay [1]; 10.9% in assay [3]; 76.7% in assay [4]; 15.2% in [5]; 21.6% in assay [7].
In the case of `O=C(NCCSCCOc1ccccc1-c1ccccc1OCCSCCNC(=O)c1ccco1)c1ccco1`, the inhibition in [1] was 25.7%; in assay [3], 46.6%; in assay [4] it was 97.2%; in the assay on Erythrocyte it was “Dose-dependent effect”; in [5] it was 68.8%; in assay [7], 83.1%. In [10], the inhibition result was “Dose-dependent effect”. The Activity is 84.7% in [2], 55.2% in assay [6], 62.9% in assay [8] and 94.1% in assay [9].
For `O=C(NCCSCCOc1ccccc1-c1ccccc1OCCSCCNC(=O)c1ccccc1)c1ccccc1`, the inhibition in assay [1] is 15.8%; in assay [3] it was 38.2%; in [4], 81.8%; in the assay on Erythrocyte, “Dose-dependent effect”; in assay [5] it was 53%; in assay [7] it was 67.8%. In addition, the inhibition entry in assay [10] is “Dose-dependent effect”. Also, the Activity in assay [2] turned out to be 60.7%; in assay [6], 35.7%; in assay [8] it was 49%; in assay [9] it was 77.5%.
As to `O=C(NCCSCCOc1ccc2ccccc2c1-c1c(OCCSCCNC(=O)c2ccco2)ccc2ccccc12)c1ccco1`, the inhibition is 29.5% in assay [1]; 50.8% in assay [3]; 98.7% in [4]; “Dose-dependent effect” in the assay with Erythrocyte; 71.5% in [5]; 87.8% in [7]. Further, the inhibition entry in assay [10] is “Dose-dependent effect”. Also, the Activity worked out at 88.9% in [2], 56.5% in [6], 65.5% in assay [8] and 96.2% in [9].
As for `O=C(Cc1cccs1)NCCSCCOc1ccc2ccccc2c1-c1c(OCCSCCNC(=O)Cc2cccs2)ccc2ccccc12`, the inhibition in [1] is 23.6%; in [3], 42.2%; in assay [4] it was 87.4%; in the assay with Erythrocyte, “Dose-dependent effect”; in [5], 59.1%; in assay [7], 73.3%. For the same compound, the inhibition result in assay [10] is “Dose-dependent effect”. Further, the Activity is reported as 72.8% in [2], 50.2% in assay [6], 61.7% in assay [8] and 86% in assay [9].
Consider `O=C(Cn1cnnn1)NCCSCCOc1ccc2ccccc2c1-c1c(OCCSCCNC(=O)Cn2cnnn2)ccc2ccccc12`, for which the inhibition in [1] was 19.6%; in assay [3] it was 39.6%; in assay [4] it was 94.2%; in the assay with Erythrocyte, “Dose-dependent effect”; in assay [5] it was 67.1%; in [7], 74.1%. In [10], the inhibition result was “Dose-dependent effect”. Also, the Activity in [2] is 82.5%; in assay [6], 61.9%; in assay [8], 69.7%; in assay [9], 91.6%.
Turning to `O=C(NCCSCCOc1ccc2ccccc2c1-c1c(OCCSCCNC(=O)c2ccccc2)ccc2ccccc12)c1ccccc1`, the inhibition was 19.5% in assay [1]; 30.3% in [3]; 82.7% in [4]; “Dose-dependent effect” in the assay with Erythrocyte; 52.3% in [5]; 65.8% in assay [7]. Besides, the inhibition entry in [10] was “Dose-dependent effect”. The Activity in [2] is reported as 63.6%; in assay [6] it was 34.5%; in assay [8], 51.4%; in assay [9], 79.4%.
